Source: the NIST ThermoML archive (doi:10.1021/je501026m)
Numbers after ± are expanded uncertainties.

Details: Crystal; DTA

For C[n+]1ccn(CCOCCn2cc[n+](C)c2)c1.F[P-](F)(F)(F)(F)F.F[P-](F)(F)(F)(F)F, which Normal melting temperature is on record?
Its Normal melting temperature is 98.00 ± 1 °C.
